In patent US20260007613A1, “LONG-ACTING LOW-TOXICITY NOVEL CATIONIC LIPID COMPOUNDS AND COMPOSITION THEREOF” (BEIJING YOUCAREKECHUANG PHARMACEUTICAL TECHNOLOGY CO., LTD., priority 2023, published 2026):
“And” between values parts separate entries of the source, which are not always exact repeats. Equal values may be shown once.

Columns and labels:
[1] = system: 293T cells; assay: Fluorescent detection of Fluc-mRNA (cell transfection efficiency of LNP formulations); format: cell-based
In short: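 293T cells were seeded at 10,000/well and cultured overnight, then given LNP carrying […] Fluc-mRNA (cationic:neutral:structured:polymer-conjugated lipid 49:10:39.5:1.5 molar) for 24 h. Luminescence was developed with […] and imaged on IVIS.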

[2] = system: 293T cells; assay: Cell survival rate determination (CCK-8); format: cell-based
In short: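 293T cells plated at 10,000/well (96-well), adhered overnight, then exposed 24 h to Fluc-mRNA LNP (cationic:neutral:structured:PEG-lipid 49:10:39.5:1.5) or Lipofectamine 3000. Viability by CCK-8, 1 h incubation, absorbance at 450 nm.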

[3] = system: female BALB/C mice; assay: Live imaging in mice: protein expression of Fluc-mRNA delivered by LNP formulations; format: in vivo; conditions: for average radiation intensity, times that of ALC-0315: comparator ALC-0315; for average radiation intensity, times that of HHMA: comparator HHMA; for average radiation intensity, times that of SM-102: comparator SM-102; for expression of mRNA in mice, times that of YK-302: comparator YK-302; for expression amount, times that of YK-309: comparator YK-309; for expression amount, times that of YK-313: comparator YK-313; for expression amount, times that of YK-321: comparator YK-321; for average radiation intensity, times that of compound 21: comparator compound 21; for average radiation intensity, times that of compound 23: comparator compound 23
In short: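 Female BALB/C mice (4-6 weeks, 17-19 g) received LNP-formulated Fluc-mRNA […] intramuscularly. At 6 h, 24 h, 48 h and 7 d, luciferase substrate given intraperitoneally, and after 5 min average radiance measured by IVIS whole-body imaging.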

[4] = Particle size and polydispersity index (PDI) of lipid nanoparticles by dynamic light scattering; format: physicochemical; conditions: LNP formulation prepared from the cationic lipid, 25° C.
Protocol: The particle size and polydispersity index (PDI) were determined by dynamic light scattering using Malvern laser particle size analyzer.
10 μL of the liposome solution was weighed, diluted to 1 mL with RNase-free deionized water, and added to the sample pool. Each sample was measured in triplicate. The measurement conditions were: […] scattering angle, and 25° C.

With CCCCCCCCC(CCCCCCCC)COC(=O)CCCCCN(CCCCCC(=O)OCC(CCCCCCCC)CCCCCCCC)C[C@H](O)CN(CC)CCO [YK-312, (S)-bis(2-octyldecyl)-6,6′-((2-hydroxy-3-((2-hydroxyethyl)(ethyl)amino)propyl)azanediyl)dihexanoate] the “Relative light unit (RLU)” value ([1]; LNP formulation of Fluc-mRNA, 96-well plate, 24 hours) was 20148450 RLU, the “Multiples (YK-305)” value ([1]; RLU of YK-305 / RLU of the lipid of the line) was 1.36 and the “Multiples (YK-310)” value ([1]; RLU of YK-310 / RLU of the lipid of the line) was 1.28. For the same compound, the “Multiples (YK-312)” value ([1]; RLU of YK-312 / RLU of the lipid of the line) was 1.00, the “Multiples (YK-318)” value ([1]; RLU of YK-318 / RLU of the lipid of the line, Tables 5, 7, 11) was 0.56 and the “Multiples (YK-319)” value ([1]; RLU of YK-319 / RLU of the lipid of the line, Tables 5, 7, 11) was 1.21. The “Ratio relative to SM-102” value ([1]; RLU of the lipid / RLU of SM-102, times that of SM-102) was 12.56, the “cell transfection efficiency, times that of ALC-0315” value ([1]; comparator ALC-0315) was 9.91 times and the “cell transfection efficiency, times that of HHMA” value ([1]; comparator HHMA) was 10.04 times. The “cell transfection efficiency, times that of Lipofectamine 3000” value ([1]; comparator Lipofectamine 3000) was 16.99 times, the “cell transfection efficiency, times that of YK-009” value ([1]; comparator YK-009) was 3.94 times and the “cell transfection efficiency, times that of YK-301” value ([1]; comparator YK-301) was 23.92 times. The “cell transfection efficiency, times that of YK-302” value ([1]; comparator YK-302) was 725.34 times, the “cell transfection efficiency, times that of YK-303” value ([1]; comparator YK-303) was 32.17 times and the “cell transfection efficiency, times that of YK-304” value ([1]; comparator YK-304) was ~900 times and 974.01 times. The “cell transfection efficiency, times that of YK-306” value ([1]; comparator YK-306) was 9.17 times, the “cell transfection efficiency, times that of YK-307” value ([1]; comparator YK-307) was 4.42 times and the “cell transfection efficiency, times that of YK-308” value ([1]; comparator YK-308) was 4.00 times. For the same compound, the “cell transfection efficiency, times that of YK-309” value ([1]; comparator YK-309) was ~160 times and 160.71 times, the “cell transfection efficiency, times that of YK-311” value ([1]; comparator YK-311) was 10.26 times and the “cell transfection efficiency, times that of YK-313” value ([1]; comparator YK-313) was 23.25 times. For the same compound, the “cell transfection efficiency, times that of YK-314” value ([1]; comparator YK-314) was 36.81 times, the “cell transfection efficiency, times that of YK-315” value ([1]; comparator YK-315) was 12.69 times and the “cell transfection efficiency, times that of YK-316” value ([1]; comparator YK-316) was 4.19 times. For the same compound, the “cell transfection efficiency, times that of YK-317” value ([1]; comparator YK-317) was 5.59 times, the “cell transfection efficiency, times that of YK-320” value ([1]; comparator YK-320) was 7.45 times and the “cell transfection efficiency, times that of YK-321” value ([1]; comparator YK-321) was 14.36 times. For the same compound, the “cell transfection efficiency, times that of compound 21” value ([1]; comparator compound 21) was 14.07 times, the “cell transfection efficiency, times that of compound 23” value ([1]; comparator compound 23) was 14.86 times and the “Cell survival rate (%)” value ([2]; LNP formulation of Fluc-mRNA, 24 hours, CCK-8) was 76.96%. For the same compound, the “cell survival rate higher than ALC-0315” value ([2]; difference of survival rates, comparator ALC-0315) was 25.93%, the “cell survival rate higher than HHMA” value ([2]; difference of survival rates, comparator HHMA) was 10.49% and the “cell survival rate higher than Lipofectamine 3000” value ([2]; difference of survival rates, comparator Lipofectamine 3000) was 51.95%. For the same compound, the “cell survival rate higher than SM-102” value ([2]; difference of survival rates, comparator SM-102) was 7.51%, the “cell survival rate higher than YK-301” value ([2]; difference of survival rates, comparator YK-301) was 24.00% and the “cell survival rate higher than YK-302” value ([2]; difference of survival rates, comparator YK-302) was 60.53%. The “cell survival rate higher than YK-303” value ([2]; difference of survival rates, comparator YK-303) was 13.64%, the “cell survival rate higher than YK-304” value ([2]; difference of survival rates, comparator YK-304) was 42.80% and the “cell survival rate higher than YK-306” value ([2]; difference of survival rates, comparator YK-306) was 34.77%. For the same compound, the “cell survival rate higher than YK-307” value ([2]; difference of survival rates, comparator YK-307) was 15.82%, the “cell survival rate higher than YK-308” value ([2]; difference of survival rates, comparator YK-308) was 5.97% and the “cell survival rate higher than YK-309” value ([2]; difference of survival rates, comparator YK-309) was 45.35%. For the same compound, the “cell survival rate higher than YK-311” value ([2]; difference of survival rates, comparator YK-311) was 6.90%, the “cell survival rate higher than YK-313” value ([2]; difference of survival rates, comparator YK-313) was 8.03% and the “cell survival rate higher than YK-314” value ([2]; difference of survival rates, comparator YK-314) was 9.08%. The “cell survival rate higher than YK-315” value ([2]; difference of survival rates, comparator YK-315) was 5.68%, the “cell survival rate higher than YK-316” value ([2]; difference of survival rates, comparator YK-316) was 6.43% and the “cell survival rate higher than YK-317” value ([2]; difference of survival rates, comparator YK-317) was 17.78%. The “cell survival rate higher than YK-320” value ([2]; difference of survival rates, comparator YK-320) was 5.89%, the “cell survival rate higher than YK-321” value ([2]; difference of survival rates, comparator YK-321) was 4.62% and the “cell survival rate higher than compound 21” value ([2]; difference of survival rates, comparator compound 21) was 6.75%. For the same compound, the “cell survival rate higher than compound 23” value ([2]; difference of survival rates, comparator compound 23) was 5.46%, the “average radiation intensity, times that of ALC-0315” value ([3]; 6 h) was 9.27 times and the “average radiation intensity, times that of HHMA” value ([3]; 6 h) was 12.30 times. For the same compound, the “average radiation intensity, times that of SM-102” value ([3]; 6 h) was 11.42 times, the “expression of mRNA in mice, times that of YK-302” value (“expression of mRNA in mice” below) ([3]; 6 h) was 549.37 times and the “expression amount, times that of YK-309” value ([3]; 6 h) was 121.95 times. For the same compound, the “expression amount, times that of YK-313” value ([3]; 6 h) was 18.11 times, the “expression amount, times that of YK-321” value ([3]; 6 h) was 15.54 times and the “average radiation intensity, times that of compound 21” value ([3]; 6 h) was 13.12 times. For the same compound, the “average radiation intensity, times that of compound 23” value ([3]; 6 h) was 13.59 times, the average radiation intensity ([3]; 6 h after intramuscular injection) was 8009850 and the “average radiation intensity, times that of ALC-0315” value ([3]; 24 h) was 11.96 times. For the same compound, the “average radiation intensity, times that of HHMA” value ([3]; 24 h) was 19.00 times, the “average radiation intensity, times that of SM-102” value ([3]; 24 h) was 18.91 times and the “expression of mRNA in mice” value ([3]; 24 h) was 575.97 times. The “expression amount, times that of YK-309” value ([3]; 24 h) was 135.46 times, the “expression amount, times that of YK-313” value ([3]; 24 h) was 21.82 times and the “expression amount, times that of YK-321” value ([3]; 24 h) was 22.51 times. The “average radiation intensity, times that of compound 21” value ([3]; 24 h) was 20.74 times, the “average radiation intensity, times that of compound 23” value ([3]; 24 h) was 21.80 times and the average radiation intensity ([3]; 24 h after intramuscular injection) was 2278520. The “average radiation intensity, times that of ALC-0315” value ([3]; 48 h) was 20.43 times, the “average radiation intensity, times that of HHMA” value ([3]; 48 h) was 24.98 times and the “average radiation intensity, times that of SM-102” value ([3]; 48 h) was 24.98 times. The “expression of mRNA in mice” value ([3]; 48 h) was 793.37 times, the “expression amount, times that of YK-309” value ([3]; 48 h) was 124.13 times and the “expression amount, times that of YK-313” value ([3]; 48 h) was 31.82 times. The “expression amount, times that of YK-321” value ([3]; 48 h) was 22.24 times, the “average radiation intensity, times that of compound 21” value ([3]; 48 h) was 26.25 times and the “average radiation intensity, times that of compound 23” value ([3]; 48 h) was 24.55 times. For the same compound, the average radiation intensity ([3]; 48 h after intramuscular injection) was 813200, the “average radiation intensity, times that of ALC-0315” value ([3]; 7 d) was 14.97 times and the “average radiation intensity, times that of HHMA” value ([3]; 7 d) was 17.97 times. For the same compound, the “average radiation intensity, times that of SM-102” value ([3]; 7 d) was 15.93 times, the “expression of mRNA in mice” value ([3]; 7 d) was 274.74 times and the “expression amount, times that of YK-309” value ([3]; 7 d) was 84.00 times. The “expression amount, times that of YK-313” value ([3]; 7 d) was 32.61 times, the “expression amount, times that of YK-321” value ([3]; 7 d) was 16.02 times and the “average radiation intensity, times that of compound 21” value ([3]; 7 d) was 16.37 times. The “average radiation intensity, times that of compound 23” value ([3]; 7 d) was 16.91 times, the average radiation intensity ([3]; 7 d after intramuscular injection) was 105500 and the “PDI (%)” value [4] was 33.4%. For the same compound, the “Particle size (nm)” value [4] was 184 nm.
